Article PMC12597212, “Biaryl Phosphate‐Based Inhibitors of the Transcription Factor STAT4” (Chemmedchem, 2025)

Assays:
Assay type in all cases: binding
STAT5b = target: T1, STAT5b (Homo sapiens, UniProt P51692); assay: Competitive fluorescence polarization (FP) assay, STAT5b; details: for IC50: 59-85 nM STAT5b, 10 nM tracer peptide; for Ki: Ki calculated from IC50, mean ± SD, n = 3; for inhibition at 100 µM: compound at 100 µM
T1 sequence (P51692 1-787): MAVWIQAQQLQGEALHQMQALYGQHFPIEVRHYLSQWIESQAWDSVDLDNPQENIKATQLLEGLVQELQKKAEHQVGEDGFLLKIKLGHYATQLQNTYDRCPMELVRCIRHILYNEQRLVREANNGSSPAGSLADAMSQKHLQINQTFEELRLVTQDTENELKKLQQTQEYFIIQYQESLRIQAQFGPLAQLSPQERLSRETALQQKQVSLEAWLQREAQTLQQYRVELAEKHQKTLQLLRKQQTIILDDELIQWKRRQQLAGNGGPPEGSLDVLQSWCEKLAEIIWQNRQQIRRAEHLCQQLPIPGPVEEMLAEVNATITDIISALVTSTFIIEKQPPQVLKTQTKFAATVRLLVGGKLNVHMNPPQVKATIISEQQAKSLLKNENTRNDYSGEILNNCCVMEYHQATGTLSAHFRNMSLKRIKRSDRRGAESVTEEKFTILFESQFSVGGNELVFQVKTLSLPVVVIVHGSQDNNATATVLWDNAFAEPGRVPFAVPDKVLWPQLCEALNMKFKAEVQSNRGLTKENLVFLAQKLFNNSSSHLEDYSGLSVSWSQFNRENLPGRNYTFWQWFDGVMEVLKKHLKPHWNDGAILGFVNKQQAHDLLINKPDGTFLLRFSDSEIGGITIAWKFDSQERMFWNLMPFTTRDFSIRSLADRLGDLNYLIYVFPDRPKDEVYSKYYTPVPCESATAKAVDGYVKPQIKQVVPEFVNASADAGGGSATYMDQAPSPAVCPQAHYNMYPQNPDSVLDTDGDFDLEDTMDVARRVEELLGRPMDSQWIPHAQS
Procedure: (§1) Fluorescence polarization assays
(§2) STAT4; 5-carboxyfluorescein-GpYDKPHVL for STAT1; 5-carboxyfluorescein-GpYLPQTV- […]
(§3) fluorescent-labeled peptide was added. Samples were transferred to 384-well microtiter plates […]
(§4) Experiments were carried out in triplicate. Percent binding was calculated based on a logarithmic curve fit using OriginPro 8G software. Conversion of IC50 values to Ki-values was […]
(§5) Error bars represent standard deviations. […]
(§6) Experiments were carried out in triplicate. […]

STAT5a = target: T2, STAT5a (Homo sapiens, UniProt P42229); assay: Competitive fluorescence polarization (FP) assay, STAT5a; details: for IC50: 125-177 nM STAT5a, 10 nM tracer peptide; for Ki: Ki calculated from IC50, mean ± SD, n = 3
T2 sequence (P42229 1-794): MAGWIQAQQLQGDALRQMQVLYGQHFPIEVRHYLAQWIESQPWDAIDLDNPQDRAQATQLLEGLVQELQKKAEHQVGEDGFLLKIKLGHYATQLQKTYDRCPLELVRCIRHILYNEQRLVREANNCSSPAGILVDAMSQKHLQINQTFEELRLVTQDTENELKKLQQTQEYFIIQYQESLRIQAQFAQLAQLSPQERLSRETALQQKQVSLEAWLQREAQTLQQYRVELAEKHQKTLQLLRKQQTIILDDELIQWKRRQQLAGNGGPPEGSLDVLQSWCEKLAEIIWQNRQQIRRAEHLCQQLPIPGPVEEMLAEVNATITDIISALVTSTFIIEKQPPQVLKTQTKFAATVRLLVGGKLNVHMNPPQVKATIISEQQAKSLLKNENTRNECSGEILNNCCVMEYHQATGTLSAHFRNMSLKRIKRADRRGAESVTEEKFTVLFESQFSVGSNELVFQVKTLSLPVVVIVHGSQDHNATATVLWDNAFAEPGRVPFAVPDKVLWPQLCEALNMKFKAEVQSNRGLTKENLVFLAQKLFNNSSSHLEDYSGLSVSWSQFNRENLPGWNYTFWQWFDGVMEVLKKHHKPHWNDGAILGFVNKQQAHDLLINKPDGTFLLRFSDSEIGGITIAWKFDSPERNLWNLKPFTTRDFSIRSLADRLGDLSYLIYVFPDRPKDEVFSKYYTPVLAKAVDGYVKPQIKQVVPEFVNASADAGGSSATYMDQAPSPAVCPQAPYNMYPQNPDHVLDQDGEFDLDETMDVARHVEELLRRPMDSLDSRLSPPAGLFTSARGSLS
Procedure: as §1, §2, §3, §4, §5, §6

STAT1 = target: T3, STAT1 (Homo sapiens, UniProt P42224); assay: Competitive fluorescence polarization (FP) assay, STAT1; details: for IC50: 80-92 nM STAT1, 10 nM tracer peptide; for Ki: Ki calculated from IC50, mean ± SD, n = 3
T3 sequence (P42224 1-750): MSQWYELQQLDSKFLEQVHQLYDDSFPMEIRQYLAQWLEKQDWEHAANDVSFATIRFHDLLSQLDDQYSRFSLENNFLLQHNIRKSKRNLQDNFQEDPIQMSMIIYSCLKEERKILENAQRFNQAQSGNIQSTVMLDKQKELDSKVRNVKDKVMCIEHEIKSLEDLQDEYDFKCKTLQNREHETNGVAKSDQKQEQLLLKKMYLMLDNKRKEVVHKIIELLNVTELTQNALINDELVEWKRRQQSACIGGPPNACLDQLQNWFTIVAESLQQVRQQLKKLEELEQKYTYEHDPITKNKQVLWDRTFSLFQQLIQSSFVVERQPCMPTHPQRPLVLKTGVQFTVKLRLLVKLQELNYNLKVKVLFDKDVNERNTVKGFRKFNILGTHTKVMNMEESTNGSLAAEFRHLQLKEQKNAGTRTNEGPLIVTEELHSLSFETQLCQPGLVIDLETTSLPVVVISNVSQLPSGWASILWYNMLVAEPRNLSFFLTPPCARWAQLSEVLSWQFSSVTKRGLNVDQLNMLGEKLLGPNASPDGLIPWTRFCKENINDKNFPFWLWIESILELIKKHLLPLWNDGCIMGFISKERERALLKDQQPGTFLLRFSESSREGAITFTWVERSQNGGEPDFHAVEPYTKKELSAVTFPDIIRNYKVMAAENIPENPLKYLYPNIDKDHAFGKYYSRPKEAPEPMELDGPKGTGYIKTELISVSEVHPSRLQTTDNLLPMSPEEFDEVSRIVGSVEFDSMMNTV
Procedure: as §1, §2, §3, §4, §5, §6

For `Cc1cc(-c2ccc(OP(=O)(O)O)c(F)c2)cs1` [8f], the IC50 (STAT5b) was 36 µM, the Ki (STAT5b) was 18 ± 1 µM and the IC50 (STAT5a) was 28 µM. It also gave a Ki (STAT5a) of 14 ± 1 µM, an IC50 (STAT1) of 9 µM and a Ki (STAT1) of 4.4 ± 0.4 µM.
Work on `O=P(O)(O)Oc1ccc2c(c1)Cc1ccccc1-2` [compound 11] yielded an IC50 (STAT5b) of 101 µM, a Ki (STAT5b) of 49 ± 6 µM and an IC50 (STAT5a) of 43 µM. It also gave a Ki (STAT5a) of 21 ± 1 µM, an IC50 (STAT1) of 14.3 µM and a Ki (STAT1) of 6.5 ± 0.2 µM.
Work on `O=P(O)(O)Oc1ccc2c(c1)oc1ccccc12` [compound 12] yielded an inhibition at 100 µM (STAT5b) of 49 ± 1%, an IC50 (STAT5a) of 55 µM and a Ki (STAT5a) of 27 ± 1 µM. It also gave an IC50 (STAT1) of 34.3 µM and a Ki (STAT1) of 16 ± 1 µM.
For `O=P(O)(O)Oc1ccc(-c2nccs2)cc1` [8c], the inhibition at 100 µM (STAT5b) was 26 ± 2%, the inhibition at 200 µM (STAT5b; compound at 200 µM) was 45 ± 1% and the IC50 (STAT5a) was 122 µM. It also gave a Ki (STAT5a) of 61 ± 3 µM, an IC50 (STAT1) of 83 µM and a Ki (STAT1) of 38 ± 3 µM.
In the case of `O=P(O)(O)Oc1ccc(-c2cccs2)cc1` [8b], the IC50 (STAT5b) is reported as 16.8 µM, the Ki (STAT5b) is reported as 8.2 ± 0.4 µM and the IC50 (STAT5a) is reported as 14.8 µM. The Ki (STAT5a) was 7.3 ± 0.9 µM, the IC50 (STAT1) was 19.5 µM and the Ki (STAT1) was 8.9 ± 0.5 µM.
`O=P(O)(O)Oc1ccc(-c2ccsc2)cc1` [8a] gave an IC50 (STAT5b) of 47 µM, a Ki (STAT5b) of 23 ± 1 µM and an IC50 (STAT5a) of 41 µM. It also gave a Ki (STAT5a) of 20 ± 0.2 µM, an IC50 (STAT1) of 20.2 µM and a Ki (STAT1) of 9.2 ± 1 µM.
